{"source": "patent US9930889B2", "about": "“Synergistic weed control from applications of penoxsulam and mefenacet” (Dow AgroSciences LLC, priority 2012, dated 2018)", "assay_in_all_cases": "Field trial in flooded transplanted rice, % visual weed control", "format_in_all_cases": "in vivo", "key": {"[1]": {"system": "Echinochloa crus-galli (barnyard grass, ECHCG)", "conditions": "42 days", "text": "(§1) The (a) penoxsulam or an agriculturally acceptable salt thereof is mixed with or applied in combination with (b) mefenacet or an agriculturally acceptable salt thereof in an amount sufficient to induce a synergistic herbicidal effect. […] As described in the Herbicide Handbook of the Weed Science Society of America, Ninth Edition, 2007, p. 429, ′″synergism′ [is] an interaction of two or more factors such that the effect when combined is greater than the predicted effect based on the response to each factor applied separately.” Synergistic in the herbicide context can mean that the use of (a) and (b) as defined above results in an increased weed control effect compared to the weed control effects that are possible with the use of (a) or (b) alone. In some embodiments, the damage or injury to the undesired vegetation caused by the compositions and methods disclosed herein is evaluated using a scale from 0% to 100%, when compared with the untreated control vegetation, wherein 0% indicates no damage to the undesired vegetation and 100% indicates complete destruction of the undesired vegetation. […] 22 (1967)\n(§2) Field trials were conducted in Japan with applications made in the area of naturally occurring weed populations. All treatments were applied using a randomized complete block trial design, with 3 replications per treatment. Plot size was 2 meters (m)×2 m (width×length), with each plot being a separate entity and flooded with water. Rice was transplanted into the plots, and the rice crop was maintained as a normal commercial crop with appropriate fertilizer and maintenance treatments as needed. Rice size at application varied from 4 leaf to 2 tiller stage, and weeds were 1 to 5 leaf stage. All plots were maintained flooded to 3 to 6 centimeter (cm) depth and treatments were applied by hand directly into the flooded plots containing the rice and weeds.\n(§3) Treatments consisted of penoxsulam and mefenacet, applied alone or in combination. Penoxsulam was applied as a granule formulation (3.5 grams of active ingredient per kilogram (g ai/kg) granule (GR)) applied directly into the flooded plots, or as a liquid formulation (31 grams of active ingredient per liter (g ai/L) emulsifiable concentrate (EC)) mixed in 1 liter (L) of solution and applied into the flooded plots. Mefenacet, as the commercial product HINOCHLOA® containing 40 g ai/kg GR, was applied directly into the flooded plots.\n(§4) The treated plots and control plots were rated blind at various intervals after application. Ratings were based on a scale of 0-100%, as discussed above, wherein 0% indicates complete growth of the undesired vegetation and 100% indicates complete prevention of the undesired vegetation.\n(§5) Colby's equation was used to determine the herbicidal effects expected from the mixtures, as described above. The results were measured at the evaluation intervals provided in Table 1 after the application of the compositions (penoxsulam and mefenacet, applied alone or in combination). […] The herbicide tank mix combinations tested, application rates and ratios employed, plant species tested, and results are included in Table 1 below."}, "[2]": {"system": "Eleocharis kuroguwai (kuro-guwai, ELOKU)", "text": "as §1, §2, §3, §4, §5"}, "[3]": {"system": "Lindernia procumbens (common false pimpernel, LIDPY)", "conditions": "for Penoxsulam Mean % weed control: 18 g ai/ha", "text": "as §1, §2, §3, §4, §5"}, "[4]": {"system": "Sagittaria pygmaea (dwarf arrowhead, SAGPY)", "conditions": "44 days", "text": "as §1, §2, §3, §4, §5"}}, "data": [{"molecule": "CN(C(=O)COc1nc2ccccc2s1)c1ccccc1", "note": "[Mefenacet, 2-(2-benzothiazolyloxy)-N-methyl-N-phenylacetamide]", "values": [{"measurement": "Mefenacet Mean % weed control", "setting": "[1]; 750 g ai/ha", "result": 40, "unit": "%"}, {"measurement": "Mefenacet Mean % weed control", "setting": "[2]; 34 days, 500 g ai/ha", "result": 0, "unit": "%"}, {"measurement": "Mefenacet Mean % weed control", "setting": "[2]; 34 days, 750 g ai/ha", "result": 0, "unit": "%"}, {"measurement": "Mefenacet Mean % weed control", "setting": "[2]; 34 days, 1000 g ai/ha", "result": 0, "unit": "%"}, {"measurement": "Mefenacet Mean % weed control", "setting": "[2]; 44 days, 1000 g ai/ha", "result": 23, "unit": "%"}, {"measurement": "Mefenacet Mean % weed control", "setting": "[2]; 52 days, 750 g ai/ha", "result": 33, "unit": "%"}, {"measurement": "Mefenacet Mean % weed control", "setting": "[2]; 52 days, 1000 g ai/ha", "result": 20, "unit": "%"}, {"measurement": "Mefenacet Mean % weed control", "setting": "[2]; 61 days, 1000 g ai/ha", "result": 0, "unit": "%"}, {"measurement": "Mefenacet Mean % weed control", "setting": "[3]; 18 days, 500 g ai/ha", "result": 43, "unit": "%"}, {"measurement": "Mefenacet Mean % weed control", "setting": "[3]; 18 days, 750 g ai/ha", "result": 50, "unit": "%"}, {"measurement": "Mefenacet Mean % weed control", "setting": "[3]; 18 days, 1000 g ai/ha", "result": 57, "unit": "%"}, {"measurement": "Mefenacet Mean % weed control", "setting": "[3]; 23 days, 500 g ai/ha", "result": 0, "unit": "%"}, {"measurement": "Mefenacet Mean % weed control", "setting": "[3]; 23 days, 750 g ai/ha", "result": 27, "unit": "%"}, {"measurement": "Mefenacet Mean % weed control", "setting": "[3]; 24 days, 500 g ai/ha", "result": 0, "unit": "%"}, {"measurement": "Mefenacet Mean % weed control", "setting": "[3]; 42 days, 500 g ai/ha", "result": 0, "unit": "%"}, {"measurement": "Mefenacet Mean % weed control", "setting": "[4]; 500 g ai/ha", "result": 0, "unit": "%"}, {"measurement": "Mefenacet Mean % weed control", "setting": "[4]; 750 g ai/ha", "result": 0, "unit": "%"}]}, {"molecule": "COc1cnc(OC)n2nc(NS(=O)(=O)c3c(OCC(F)F)cccc3C(F)(F)F)nc12", "note": "[Penoxsulam]", "values": [{"measurement": "Penoxsulam Mean % weed control", "setting": "[1]; 18 g ai/ha", "result": 81, "unit": "%"}, {"measurement": "Penoxsulam Mean % weed control", "setting": "[2]; 34 days, 18 g ai/ha", "result": 62, "unit": "%"}, {"measurement": "Penoxsulam Mean % weed control", "setting": "[2]; 44 days, 70 g ai/ha", "result": 81, "unit": "%"}, {"measurement": "Penoxsulam Mean % weed control", "setting": "[2]; 52 days, 18 g ai/ha", "result": 34, "unit": "%"}, {"measurement": "Penoxsulam Mean % weed control", "setting": "[2]; 52 days, 35 g ai/ha", "result": 62, "unit": "%"}, {"measurement": "Penoxsulam Mean % weed control", "setting": "[2]; 52 days, 70 g ai/ha", "result": 71, "unit": "%"}, {"measurement": "Penoxsulam Mean % weed control", "setting": "[2]; 61 days, 35 g ai/ha", "result": 49, "unit": "%"}, {"measurement": "Penoxsulam Mean % weed control", "setting": "[2]; 61 days, 70 g ai/ha", "result": 61, "unit": "%"}, {"measurement": "Penoxsulam Mean % weed control", "setting": "[3]; 18 days", "result": 73, "unit": "%"}, {"measurement": "Penoxsulam Mean % weed control", "setting": "[3]; 23 days", "result": 87, "unit": "%"}, {"measurement": "Penoxsulam Mean % weed control", "setting": "[3]; 24 days", "result": 86, "unit": "%"}, {"measurement": "Penoxsulam Mean % weed control", "setting": "[3]; 42 days", "result": 83, "unit": "%"}, {"measurement": "Penoxsulam Mean % weed control", "setting": "[4]; 35 g ai/ha", "result": 82, "unit": "%"}]}]}
